System: SREBP1 (SREBP1m)
Test: Western blot of mature SREBP1
Type: cell-based, human
Settings: RSL3-resistant cancer cells (BT474, MDA-MB-453, MCF7); CCI-779 0.5 μM
Protocol: FIG. 4 A-F. mTORC1 activation suppresses ferroptosis by upregulating SREBP1. (A) BT474 and MDA-MB-453 cells were treated as indicated. RSL3, 0.5 μM; CCI-779, 0.5 μM. Cell lysates were collected after 8 h and 24 h of treatment for BT474 cells and MDA-MB-453 cells, respectively, for western blot detecting […], total S6K, unprocessed SREBP1 (SREBP1(p)) and processed, mature SREBP1 (SREBP1(m)). (B) Cells were treated as indicated. RSL3, 0.5 μM for BT474 cells and 1 μM for MDA-MB-453 cells; Fer-1, 1 μM. (C) Cells were treated as in panel B. Lipid peroxidation was measured. (D) 3D spheroids derived from BT474 cells harboring control or SREBF1 sgRNA were treated as indicated. CCI-779, 0.5 μM; RSL3, 0.5 μM; Fer-1, 1 μM. Top, cell death stained by Sytox Green (scale bar, 100 μm). Bottom, cell viability. (E) SREBP1m was overexpressed in BT474 cells and determined by western blot. Cells were treated as indicated. RSL3, 0.5 μM; CCI-779, 0.5 μM. Cell death was measured (bottom panel). (F) 3D spheroids derived from BT474 cells were treated as indicated. RSL3, 0.5 μM; CCI-779, 0.5 μM; Fer-1, 1 μM. Top, cell death stained by Sytox Green (scale bar, 100 m). […]
FIG. 9 A-F. SREBP1 protects cells from ferroptosis. […] (C) Efficiency of SREBF1 Knockout in BT474, MDA-MB-453, and MCF7 cells was monitored by western blot. […] (F) SREBP1m was overexpressed in MCF7, MDA-MB-453 and A549 cells and determined by western blot. […]

For CO[C@H]1C[C@@H]2CC[C@@H](C)[C@@](O)(O2)C(=O)C(=O)N2CCCC[C@H]2C(=O)O[C@H]([C@H](C)C[C@@H]2CC[C@@H](OC(=O)C(C)(CO)CO)[C@H](OC)C2)CC(=O)[C@H](C)/C=C(\C)[C@@H](O)[C@@H](OC)C(=O)[C@H](C)C[C@H](C)/C=C/C=C/C=C/1C [CCI-779, Temsirolimus], the “level of the mature form of SREBP1 (SREBP1m)” value was “decreased”.

Reference: patent US20230414626A1, “INDUCTION OF FERROPTOSIS FOR CANCER THERAPY” (Memorial Sloan Kettering Cancer Center, priority 2020, published 2023)
